Consider seven compounds from patent publication US11247998B2, “Piperazine heteroaryl derivative, preparation method therefor and use of same in medicine” (priority 2017, dated 2022).

Data set [1] in a line: Pharmacokinetics assay in rats after intragastrical administration (LC/MS/MS of plasma). The class given is in vivo. The conditions noted are these: SD rats, 2 mg/kg; for Vd/F / AUC / bioavailability / CL/F / half-life / Cmax / MRT: both sexes, rat, plasma, po; for Vd/F: read-out: Apparent distribution volume Vz/F; for AUC: read-out: Area under curve AUC; for bioavailability: read-out: Bioavailability (%) F %; for CL/F: read-out: Clearance CLz/F; for half-life: read-out: Half-life T1/2 (converted); for Cmax: read-out: Plasma concentration Cmax; for MRT: read-out: Residence time MRT. The procedure:
Pharmacokinetics assay of the compound of the present invention
Rats were used as test animals. The drug concentration in plasma at different time points was determined by LC/MS/MS method after intragastrical administration of the compound of Example 1, the compound of Example 2, the compound of Example 4, the compound of Example 6, the compound of Example 7, the compound of Example 11, the compound of Example 39, the compound of Example 42, the compound of Example 44, the compound of Example 45 and the compound of Example 47 to rats. The pharmacokinetic behavior and property of the compound of the present invention were studied and evaluated in rats.
44 Healthy adult SD rats (half male and half female, 4 rats/group) were purchased from Shanghai Jiesijie Laboratory Animal Co., LTD, with Certificate No.: SCXK (Shanghai) 2013-0006.
A certain amount of the test compound was weighed, and added with 5% by volume of DMSO, 5% by volume of tween 80 and 90% by volume of normal saline to prepare a 0.2 mg/mL colorless, clear and transparent solution.
After an overnight fast, SD rats were administrated intragastrically with the test compound at an administration dose of 2.0 mg/kg and an administration volume of 10.0 mL/kg.
The rats were intragastrically administrated the compound of Example 1, the compound of Example 2, the compound of Example 4, the compound of Example 6, the compound of Example 7, the compound of Example 11, the compound of Example 39, the compound of Example 42, the compound of Example 44, the compound of Example 45 and the compound of Example 47. 0.1 ml of blood was taken from the orbit before administration and at 0.5, 1.0, 2.0, 4.0, 6.0, 8.0, 11.0 and 24.0 hours after administration. The samples were stored in heparinized tubes, and centrifuged for 10 minutes at 3500 rpm to separate the blood plasma. The plasma samples were stored at −20° C. The rats were fed two hours after administration.
The content of the test compound in the plasma of rats after intragastrical administration of the test compound at different concentrations was determined: 25 μL of rat plasma at each time after administration was taken, added with 40 μL of the internal standard solution of camptothecin (100 ng/mL) and 200 μL of acetonitrile, vortex-mixed for 5 minutes, and centrifuged for 10 minutes (4000 rpm). 0.2 μL of the supernatant was taken from the plasma samples for LC/MS/MS analysis.

The test system of data set [2] is HBV DNA replication in HepG2.2.15 cells. Nature of the data set: In vitro anti-HBV activity test (quantitative assay of intracellular HBV DNA), HepG2.2.15 cells, quantitative PCR. It counts as cell-based, hepatitis B virus (HBV). The conditions noted are these: HBV DNA by quantitative PCR; for EC50: compound treatment Day 2 to Day 8; for Emax: read-out: Emax (effect value of the compound to maximally inhibit HBV DNA replication). The method, then: In vitro anti-HBV activity test of the compound of the present invention (quantitative assay of intracellular HBV DNA)
HepG2.2.15 cell is a stable expression cell line that has integrated HBV genome.
Virus particles containing HBV DNA can be synthesized by replication, transcription and encapsidation in the cells, and then secreted. In this study, the quantitative analysis of HBV DNA produced by HepG2.2.15 in vitro proliferation was carried out by quantitative PCR method, thereby determining the activity of the compound of the present invention on inhibiting the HBV DNA replication by inhibiting the assembly of HBV capsid protein.
HepG2.2.15 cells were cultured in DMEM/high glucose medium (10% FBS, […] G418) and passaged every three days. On the day of the experiment, a cell suspension was prepared with fresh cell culture medium, and incubated in a 96-well plate (Corning, #3599) at 40,000 cells/well, at 5% carbon dioxide, 37° C. On Day 2, the compound was dissolved in pure DMSO at a concentration of 20 mM, and then the first concentration of 2 mM was formulated with DMSO, and diluted in 4-fold concentration gradient to 8 concentrations. A control well was added with 90 μl of DMSO. The compound solution was diluted 200-fold with DMEM/high glucose medium. The cell culture plate inoculated on Day 1 was taken out. The medium in the wells was removed by a negative pressure suction device, and the formulated medium containing the compound at each concentration was added respectively to each well at 200 μl/well. The plate was incubated at 37° C. for 72 hours. On Day 5, the medium of the cultured cells was replaced with fresh medium containing the same compound in the same way as Day 2, and then the plate was incubated at 37° C. for 72 hours. On Day 8, the cell culture plate was taken out, centrifuged at 300 g for 3 minutes, and the culture supernatant was collected at 200 μl/well. HBV DNA was extracted from the cell culture supernatant with Qiagen automatic DNA extraction device, and the specific method referred to the instructions of the reagents and instruments. Finally, the extracted DNA was eluted with DNA elution buffer at 100 μl/well. The extracted DNA was subjected to quantitative PCR analysis of HBV DNA using Hepatitis B virus nucleic acid quantitative detection kit (Triplex International Biosciences Co., Ltd.), and the specific method referred to the instruction of the kit. The quantitative standard curve was obtained with the standard sample provided in the kit, and the experiments were performed in parallel. Quantitative conversion of each sample was carried out according to the standard curve. Finally, the EC50 value of the compound was calculated with Graphpad Prism software according to each concentration of the compound and the corresponding DNA value.
The in vitro activity of the compound of the present invention on inhibiting the HBV DNA replication by inhibiting the assembly of HBV capsid protein was determined by the above experiment.

Data set [3] can be described thus: Effect on in vitro proliferation of HepG2 cells (CellTiter-Glo). It counts as cell-based. The conditions noted are these: human; HepG2 cells, 72 hours, CellTiter-Glo. The method, then: (§1) Test Example 2. Effect of the Compound of the Present Invention on In Vitro Proliferation of HepG2 Cells
(§2) HepG2 cells in logarithmic growth phase were taken and digested with trypsin to prepare a cell suspension, which was incubated in a 96-well plate (transparent bottom white 96-well plate, PerkinElmer) at 6,000 cells/well, at 5% carbon dioxide, 37° C. for 16-20 hours. On Day 2, the compound was dissolved in pure DMSO at a concentration of 20 mM. The compound was diluted in 3-fold concentration gradient using an automatic pipetting station (Bravo), 8 concentration points for each compound, and the control well was DMSO. The compound formulated in DMSO at each concentration point was diluted 200-fold with EMEM (containing 10% FBS) medium. The cell culture plate inoculated on Day 1 was taken out. The medium in the wells was removed by a negative pressure suction device, and the formulated medium containing the compound at each concentration was added respectively to each well at 100 μl/well. The plate was incubated at 37° C. for 72 hours. On Day 5, the 96-well cell culture plate was taken out, and freshly formulated CellTiter Glo was added to each well at 100 μl/well. The 96-well plate was left to stand for 5-10 minutes, the bottom was then sealed with a white bottom sealing film (PerkinElmer). The plate was placed in the microplate reader to measure the luminescence signal. The CC50 value of the compound was calculated with Graphpad Prism software according to each concentration of the compound and the corresponding proliferation inhibition signal value.
(§3) The inhibition effect of the compound of the present invention on in vitro proliferation of HepG2 cells was determined by the above experiment.

Another data set concerns HepG2 cells. Described as above. The class given is cell-based. The method, then: as §1, §2, §3

Like-named read-outs stand apart in the source and are kept apart here.

As for `C[C@H]1Cn2ncc(C(=O)N[C@H](C)C(F)(F)F)c2CN1C(=O)Nc1ccc(F)c(F)c1` [Example 7, (S)—N^5-(3,4-Difluorophenyl)-6-methyl-N^3-((R)-1,1,1-trifluoropropan-2-yl)-6,7-dihydropyrazolo[1,5-α]pyrazine-3,5(4H)-dicarboxamide], in data set [1], the Vd/F came out at 1.65 ± 0.174 L/kg; the AUC (commonly the area under the concentration-time curve, a measure of exposure) was 16500 ± 9260 ng·h/mL; the bioavailability came to 98%; the CL/F turned out to be 2.63 ± 1.46 mL/min/kg. Also, in data set [1], the half-life was 583 ± 356 min; the Cmax worked out at 1080 ± 151 ng/mL; the MRT (usually a mean duration of stay, worked out from the concentration-time curve) was determined as 14.1 ± 8 h. In addition, in data set [2] (Hepatitis B virus), the concentration giving a half-maximal response (EC50) (in general, the midpoint of the concentration-response curve) worked out at 38 nM and the Emax (usually the greatest response seen or fitted, relative to the assay's reference) came out at 100%. Also, in data set [3], the CC50 (in general, the concentration that lowers cell viability or growth by half) at 72 h was above 100 µM.
Regarding `C[C@H]1Cn2cnc(C(=O)N[C@H](C)C(F)(F)F)c2CN1C(=O)Nc1ccc(F)c(C#N)c1` [Example 11, (S)—N^7-(3-Cyano-4-fluorophenyl)-6-methyl-N^1-((R)-1,1,1-trifluoropropan-2-yl)-5,6-dihydroimidazo[1,5-α]pyrazine-1,7-(8H)-dicarboxamide], in data set [1], the Vd/F was determined as 2.89 ± 0.389 L/kg, the AUC turned out to be 10900 ± 4520 ng·h/mL, the bioavailability came to 111% and the CL/F turned out to be 3.53 ± 1.5 mL/min/kg. Also, in data set [1], the half-life is 672 ± 338 min, the Cmax turned out to be 597 ± 64 ng/mL and the mean residence time MRT is 16.3 ± 7.6 h. Also, in data set [2] (Hepatitis B virus), the EC50 amounted to 18 nM and the Emax was determined as 100%. The CC50 at 72 h in data set [3] is above 100 µM.
As for `C[C@H]1Cn2nnc(C(=O)N[C@H](C)C(F)(F)F)c2CN1C(=O)Nc1ccc(F)c(F)c1` [Example 39, (S)—N^5-(3,4-Difluorophenyl)-6-methyl-N^3-((R)-1,1,1-trifluoropropan-2-yl)-6,7-dihydro-[1,2,3]triazolo[1,5-α]pyrazine-3,5(4H)-dicarboxamide], in data set [1], the “Area under curve AUC” value is 8105 ± 1585 ng·h/mL, the “Bioavailability (%) F %” value is reported as 114%, the “Clearance CLz/F” value amounted to 4.21 ± 0.69 mL/min/kg and the “Half-life T1/2” value was 6.49 ± 1.71 h. Also, in data set [1], the “Plasma concentration Cmax” value worked out at 682 ± 168 ng/mL and the “Residence time MRT” value is 9.82 ± 1.75 h. Further, in data set [2], the “Emax (effect value of the compound to maximally inhibit HBV DNA replication)” value is 100% and the EC50 is 19 nM. Further, the cytotoxic concentration (CC50) in the data set with HepG2 cells (HepG2 cells, 72 hours, CellTiter-Glo, read-out: CC50) was above 100 µM.
Turning to `C[C@@H]1CN(C(=O)Nc2ccc(F)c(F)c2)Cc2c(C(=O)N[C@H](C)C(F)(F)F)nnn21` [Example 42, (R)—N^5-(3,4-Difluorophenyl)-7-methyl-N^3-((R)-1,1,1-trifluoropropan-2-yl)-6,7-dihydro-[1,2,3]triazolo[1,5-α]pyrazine-3,5(4)-dicarboxamide], in data set [1], the Vd/F turned out to be 5.96 ± 1.22 L/kg, the area under the curve (AUC) amounted to 7380 ± 3180 ng·h/mL, the bioavailability came out at 87% and the CL/F was found to be 5.3 ± 2.47 mL/min/kg. Also, in data set [1], the half-life was 954 ± 534 min, the Cmax was 433 ± 102 ng/mL and the MRT stood at 22.1 ± 12.4 h. In data set [2] (Hepatitis B virus), the EC50 worked out at 75 nM and the Emax stood at 100%. The CC50 at 72 h in data set [3] is above 100 µM.
In the case of `C[C@H](NC(=O)c1nnn2c1CN(C(=O)Nc1ccc(F)c(F)c1)[C@@H](C)C2)C(F)(F)F` [Example 43, (S)—N^5-(3,4-Difluorophenyl)-6-methyl-N^3—((S)-1,1,1-trifluoropropan-2-yl)-6,7-dihydro-[1,2,3]triazolo[1,5-α]pyrazine-3,5(4-)-dicarboxamide], in data set [2], the “Emax (effect value of the compound to maximally inhibit HBV DNA replication)” value is on record as 99% and the concentration giving a half-maximal response (EC50) stood at 39 nM. Also, in the data set on HepG2 cells, the CC50 is above 100 µM.
Consider `C[C@@H]1CN(C(=O)Nc2ccc(F)c(C#N)c2)Cc2c(C(=O)N[C@H](C)C(F)(F)F)nnn21` [Example 44, (R)—N^5-(3-Cyano-4-fluorophenyl)-7-methyl-N^3-((R)-1,1,1-trifluoropropan-2-yl)-6,7-dihydro-[1,2,3]triazolo[1,5-α]pyrazine-3,5(4H)-dicarboxamide], for which, in data set [1], the Vd/F came out at 4.13 ± 0.26 L/kg, the area under the curve (AUC) worked out at 11800 ± 3100 ng·h/mL, the bioavailability amounted to 94% and the CL/F was determined as 2.99 ± 0.78 mL/min/kg. Moreover, in data set [1], the half-life was 1020 ± 303 min, the Cmax is 509 ± 39.4 ng/mL and the MRT came to 24.2 ± 7.38 h. In addition, in data set [2] (Hepatitis B virus), it took 60 nM to reach a half-maximal effect (EC50) and the Emax came out at 99%. The compound further gave a CC50 at 72 h in data set [3] above 100 µM.
Turning to `C[C@@H]1CN(C(=O)Nc2ccc(F)c(C#N)c2)Cc2c(C(=O)N[C@H](C)C(F)(F)F)ncn21` [Example 47, (R)—N^7-(3-Cyano-4-fluorophenyl)-5-methyl-N^1-((R)-1,1,1-trifluoropropan-2-yl)-5,6-dihydroimidazo[1,5-α]pyrazine-1,7(8H)-dicarboxamide], in data set [1], the Vd/F amounted to 5.69 ± 2.24 L/kg, the AUC was 7260 ± 3050 ng·h/mL, the bioavailability is 125% and the CL/F worked out at 5.4 ± 2.69 mL/min/kg. Also, in data set [1], the half-life was 786 ± 258 min, the Cmax amounted to 462 ± 94 ng/mL and the mean residence time MRT amounted to 17.7 ± 6.3 h. Further, in data set [2] (Hepatitis B virus), the midpoint of the response, the EC50, lay at 82 nM and the maximal response (Emax) stood at 100%. In addition, the half-maximal cytotoxic concentration (CC50) at 72 h in data set [3] is above 100 µM.
